Source: the supplement of paper PMC13207355
Counter-ions that a name gives are not always drawn.

Columns and labels:
Details in all cases: exposure time: 72 h
E13 [1] = patient-derived glioblastoma stem cells of classical subtype; assay: phenotypic distance (Euclidean, principal components) from DMSO controls (arbitrary units); higher = stronger morphological change
E28 [2] = patient-derived glioblastoma stem cells of classical subtype; assay: as above
FT3469 [3] = normal neural stem cell line; assay: as above
E57 [4] = patient-derived glioblastoma stem cells of mesenchymal subtype; assay: as above
E34 [5] = patient-derived glioblastoma stem cells of proneural subtype; assay: as above
E31 [6] = patient-derived glioblastoma stem cells of proneural subtype; assay: as above
E21 [7] = patient-derived glioblastoma stem cells of mesenchymal subtype; assay: as above
E13 [8] = assay: surviving fraction (nuclei count normalised to DMSO); higher = more cells surviving (less toxic)
E28 [9] = assay: as above
FT3469 [10] = assay: as above
E57 [11] = assay: as above
E34 [12] = assay: as above
E31 [13] = assay: as above
E21 [14] = assay: as above
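Throughout, for phenotypic distance (Euclidean, principal components) from DMSO controls: cell Painting imaging in 384-well plates, CellProfiler features reduced to at least 20 principal components, Euclidean distance versus same-plate DMSO vehicle wells (0.1% v/v), median over six images per well.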
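Throughout, for surviving fraction (nuclei count normalised to DMSO): nuclei counted by high-content imaging of Hoechst-stained cells in laminin-coated 384-well plates, relative to 0.1% DMSO vehicle wells, with staurosporine as cell-death control.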

COc1cc(OC)c(C(=O)CCCN2CCCC2)c(OC)c1 [Buflomedil hydrochloride]
phenotypic distance (E13 [1]; 4.1 nM): 0.727
phenotypic distance (E13 [1]; 12.3 nM): 0.83
phenotypic distance (E13 [1]; 37 nM): 0.928
phenotypic distance (E13 [1]; 111.1 nM): 0.845
phenotypic distance (E13 [1]; 333.3 nM): 0.564
phenotypic distance (E13 [1]; 1000 nM): 0.536
phenotypic distance (E13 [1]; 3000 nM): 0.71
phenotypic distance (E28 [2]; 4.1 nM): 0.701
phenotypic distance (E28 [2]; 12.3 nM): 0.827
phenotypic distance (E28 [2]; 37 nM): 0.611
phenotypic distance (E28 [2]; 111.1 nM): 0.817
phenotypic distance (E28 [2]; 333.3 nM): 0.347
phenotypic distance (E28 [2]; 1000 nM): 0.489
phenotypic distance (E28 [2]; 3000 nM): 0.878
phenotypic distance (FT3469 [3]; 4.1 nM): 0.468
phenotypic distance (FT3469 [3]; 12.3 nM): 4.94
phenotypic distance (FT3469 [3]; 37 nM): 1.05
phenotypic distance (FT3469 [3]; 111.1 nM): 0.796
phenotypic distance (FT3469 [3]; 333.3 nM): 0.368
phenotypic distance (FT3469 [3]; 1000 nM): 0.514
phenotypic distance (FT3469 [3]; 3000 nM): 1.05
phenotypic distance (E57 [4]; 4.1 nM): 0.802
phenotypic distance (E57 [4]; 12.3 nM): 1.18
phenotypic distance (E57 [4]; 37 nM): 4.02
phenotypic distance (E57 [4]; 111.1 nM): 0.575
phenotypic distance (E57 [4]; 333.3 nM): 0.903
phenotypic distance (E57 [4]; 1000 nM): 0.71
phenotypic distance (E57 [4]; 3000 nM): 0.526
phenotypic distance (E34 [5]; 4.1 nM): 0.771
phenotypic distance (E34 [5]; 12.3 nM): 0.727
phenotypic distance (E34 [5]; 37 nM): 0.358
phenotypic distance (E34 [5]; 111.1 nM): 1.11
phenotypic distance (E34 [5]; 333.3 nM): 0.684
phenotypic distance (E34 [5]; 1000 nM): 0.961
phenotypic distance (E34 [5]; 3000 nM): 0.717
phenotypic distance (E31 [6]; 4.1 nM): 0.629
phenotypic distance (E31 [6]; 12.3 nM): 0.47
phenotypic distance (E31 [6]; 37 nM): 0.918
phenotypic distance (E31 [6]; 111.1 nM): 0.593
phenotypic distance (E31 [6]; 333.3 nM): 0.443
phenotypic distance (E31 [6]; 1000 nM): 0.577
phenotypic distance (E31 [6]; 3000 nM): 0.55
phenotypic distance (E21 [7]; 4.1 nM): 0.617
phenotypic distance (E21 [7]; 12.3 nM): 0.741
phenotypic distance (E21 [7]; 37 nM): 0.582
phenotypic distance (E21 [7]; 111.1 nM): 0.712
phenotypic distance (E21 [7]; 333.3 nM): 0.706
phenotypic distance (E21 [7]; 1000 nM): 0.913
phenotypic distance (E21 [7]; 3000 nM): 0.567
surviving fraction (E13 [8]; 4.1 nM): 0.886
surviving fraction (E13 [8]; 12.3 nM): 1.12
surviving fraction (E13 [8]; 37 nM): 1.19
surviving fraction (E13 [8]; 111.1 nM): 1.13
surviving fraction (E13 [8]; 333.3 nM): 1.01
surviving fraction (E13 [8]; 1000 nM): 1.17
surviving fraction (E13 [8]; 3000 nM): 0.944
surviving fraction (E28 [9]; 4.1 nM): 1.16
surviving fraction (E28 [9]; 12.3 nM): 1.19
surviving fraction (E28 [9]; 37 nM): 0.856
surviving fraction (E28 [9]; 111.1 nM): 1.21
surviving fraction (E28 [9]; 333.3 nM): 1.1
surviving fraction (E28 [9]; 1000 nM): 1.16
surviving fraction (E28 [9]; 3000 nM): 0.677
surviving fraction (FT3469 [10]; 4.1 nM): 0.947
surviving fraction (FT3469 [10]; 12.3 nM): 1.27
surviving fraction (FT3469 [10]; 37 nM): 1.15
surviving fraction (FT3469 [10]; 111.1 nM): 1
surviving fraction (FT3469 [10]; 333.3 nM): 1.03
surviving fraction (FT3469 [10]; 1000 nM): 1.1
surviving fraction (FT3469 [10]; 3000 nM): 0.993
surviving fraction (E57 [11]; 4.1 nM): 1.06
surviving fraction (E57 [11]; 12.3 nM): 1.03
surviving fraction (E57 [11]; 37 nM): 0.98
surviving fraction (E57 [11]; 111.1 nM): 1.02
surviving fraction (E57 [11]; 333.3 nM): 1.04
surviving fraction (E57 [11]; 1000 nM): 0.994
surviving fraction (E57 [11]; 3000 nM): 0.9
surviving fraction (E34 [12]; 4.1 nM): 0.963
surviving fraction (E34 [12]; 12.3 nM): 1.03
surviving fraction (E34 [12]; 37 nM): 1.02
surviving fraction (E34 [12]; 111.1 nM): 1.11
surviving fraction (E34 [12]; 333.3 nM): 1.02
surviving fraction (E34 [12]; 1000 nM): 1.22
surviving fraction (E34 [12]; 3000 nM): 0.991
surviving fraction (E31 [13]; 4.1 nM): 0.968
surviving fraction (E31 [13]; 12.3 nM): 0.998
surviving fraction (E31 [13]; 37 nM): 1.23
surviving fraction (E31 [13]; 111.1 nM): 1.03
surviving fraction (E31 [13]; 333.3 nM): 1.2
surviving fraction (E31 [13]; 1000 nM): 1.04
surviving fraction (E31 [13]; 3000 nM): 1.02
surviving fraction (E21 [14]; 4.1 nM): 1.05
surviving fraction (E21 [14]; 12.3 nM): 1.06
surviving fraction (E21 [14]; 37 nM): 1.02
surviving fraction (E21 [14]; 111.1 nM): 1.12
surviving fraction (E21 [14]; 333.3 nM): 1.13
surviving fraction (E21 [14]; 1000 nM): 1.12
surviving fraction (E21 [14]; 3000 nM): 0.927
